Measured values as given in patent publication US9756860B2, “Antimicrobial composition of ortho phenylphenol and silver” (Rohm and Haas Company, priority 2011, dated 2017).
Like-named read-outs stand apart in the source and are kept apart here.

Legend:
Type in all cases: cell-based
[1] = test system: Aspergillus niger ATCC# 16404; assay: MIC / synergy index test in 96 well microtiter plates, mold; details: A. niger, ppm active
Protocol: (§1) Ortho phenylphenol and silver are evaluated for synergy by determining the synergy index (S.I.) of the combination. Synergy index is calculated based on minimum inhibitory concentrations (MIC) of two antimicrobial compounds (A and B) alone and in combinations. The tests organisms are Gram negative bacteria (Pseudomonas aeruginosa), Gram positive bacteria (Staphylococcus aureus), yeast (Candida albicans) and mold (Aspergillus niger). Contact time for the bacteria is 24 and 48 hours, yeast is 48 and 72 hrs, and 3 and 7 days for mold. The test is carried out in 96 well microtiter plates.
(§2) SI is calculated as follows: Ca/CA+Cb/CB=Synergy Index (“SI”) Wherein: • CA=concentration of compound A in ppm, acting alone, which produced an end point (MIC of Compound A). • Ca=concentration of compound A in ppm, in the mixture, which produced an end point. • CB=concentration of compound B in ppm, acting alone, which produced an end point (MIC of Compound B). • Cb=concentration of compound B in ppm, in the mixture, which produced an end point. When the sum of Ca/CA and Cb/CB is greater than one, antagonism is indicated.

[2] = test system: Candida albicans ATCC#10203; assay: MIC / synergy index test in 96 well microtiter plates, yeast; details: C. albicans, ppm active; for MIC: Candida albicans, ATCC10203, alone, read-out: MIC of compound acting alone (CA / CB)
Protocol: as §1, §2

[3] = test system: Pseudomonas aeruginosa ATCC # 15442; assay: MIC / synergy index test in 96 well microtiter plates, Gram negative bacteria; details: Ps. aeruginosa, ppm active; for MIC: Pseudomonas aeruginosa, ATCC15442, alone, read-out: MIC of compound acting alone (CA / CB)
Protocol: as §1, §2

[4] = test system: Staphylococcus aureus ATCC# 6538; assay: MIC / synergy index test in 96 well microtiter plates, Gram positive bacteria; details: S. aureus, ppm active; for MIC: Staphylococcus aureus, ATCC6538, alone, read-out: MIC of compound acting alone (CA / CB)
Protocol: as §1, §2

SMILES | MIC of compound acting alone (CA / CB) ([1]; contact time 3rd day) [ppm] | MIC of compound acting alone (CA / CB) ([1]; contact time 7th day) [ppm] | MIC of compound acting alone (CA / CB) ([2]; contact time 48 hrs) [ppm] | MIC of compound acting alone (CA / CB) ([2]; contact time 72 hrs) [ppm] | MIC of compound acting alone (CA / CB) ([3]; contact time 24 hrs) [ppm] | MIC of compound acting alone (CA / CB) ([3]; contact time 48 hrs) [ppm] | MIC of compound acting alone (CA / CB) ([4]; contact time 24 hrs) [ppm] | MIC of compound acting alone (CA / CB) ([4]; contact time 48 hrs) [ppm] | MIC ([1]; Aspergillus niger, ATCC16404, contact time 7th day, alone, read-out: MIC of compound acting alone (CA / CB)) [µg/mL] | MIC ([2]; contact time 48 hrs) [µg/mL] | MIC ([2]; contact time 72 hrs) [µg/mL] | MIC ([3]; contact time 24 hrs) [µg/mL] | MIC ([3]; contact time 48 hrs) [µg/mL] | MIC ([4]; contact time 24 hrs) [µg/mL] | MIC ([4]; contact time 48 hrs) [µg/mL]
O=[N+]([O-])[O-].[Ag+] [AgNO3, Silver Nitrate] | 3 | 10 | 10 | 10 | 0.4 | 1 | 6 | 8 |  |  |  |  |  |  | 
Oc1ccccc1-c1ccccc1 [OPP, ortho-phenylphenol] | 75 |  |  |  |  |  |  |  | 75 | 150 | 150 | 500 | 500 | 200 | 200
